Measurements taken from patent US10617672B2, “Liposome composition co-encapsulating doxorubicin and a prodrug of mitomycin C” (LIPOMEDIX PHARMACEUTICALS LTD., priority 2015, dated 2020).
Where two headings read alike, the source gives them in different places.

How the values were obtained:
[1] = tested on: N-87 gastric carcinoma cells; assay: In vitro cytotoxicity, methylene blue staining, 72 h; format: cell-based, human; conditions: N-87 cells, 72 hours at 37° C.
Procedure: (§1) For comparison, liposomes with entrapped doxorubicin with ammonium sulfate gradient and a coating of polyethyleneglycol (PEG) (available under the tradename DOXIL®), liposomes with the mitomycin C prodrug conjugate incorporated into the lipid bilayer and a coating of PEG (sometimes referred to in the literature by the tradename PROMITIL®) were also evaluated in the cell lines, along with free doxorubicin and liposomes with encapsulated doxorubicin with ammonium alendronate gradient and a coating of PEG (U.S. 2014/0328899, incorporated by reference herein).
(§2) In the cytotoxicity assay, cells were seeded in 96-multiwell plates. After overnight incubation, the drugs or liposome compositions were added at various concentrations and cells were incubated further for a total exposure of 72 hrs. Cell growth was evaluated colorimetrically with methylene blue staining and growth rates and IC50 values were calculated as known in the literature.

[2] = tested on: IGrov-1 ovarian carcinoma cells; assay: as above; format: cell-based, human; conditions: IGrov-1 cells, 72 hours at 37° C.
Procedure: as §1, §2

[3] = tested on: T24 bladder cancer carcinoma cells; assay: as above; format: cell-based, human; conditions: 72 hours at 37° C.
Procedure: as §1, §2

[4] = tested on: T-24 bladder cancer cells; assay: Cell uptake of doxorubicin and mitomycin C prodrug conjugate; format: cell-based, human; conditions: T-24 cells, 3 hours of incubation; doxorubicin 6.5 μmoles/L (3.7 μg/mL), MLP 5 μmoles/L (5.7 μg/mL)
Procedure: In brief, the liposomal compositions or free doxorubicin were incubated for 3 hours with the cell lines at a doxorubicin concentration of 6.5 μmoles/L (3.7 μg/mL) and final mitomycin C lipid prodrug conjugate concentration of 5 μmoles/L (5.7 μg/mL).
Cell uptake studies were done as follows. 1×10^6 cells were incubated for 3 hours with the various test agents at a doxorubicin concentration of 6.5 μmoles/mL (3.7 μg/mL) and final mitomycin C lipid prodrug conjugate concentration of 5 μmoles/mL (5.7 μg/mL) and a phospholipid concentration similar to that of liposomes with entrapped doxorubicin (40 nanomoles/mL).

4T1 breast tumor = assay: Antitumor activity in mouse 4T1 breast tumor model; format: in vivo; conditions: BALB/c mice, single i.v. dose eight days after inoculation
Procedure: BALB/c mice were inoculated intravenously with 100,000 cells 4T1 breast cancer cells to produce tumors. Three were approximately eight tumor-bearing mice in each of the treatment groups.
Eight days after inoculation, the test formulations were administered intravenously.

NCI/ADR cells = assay: In vitro cytotoxicity, methylene blue staining, 72 h; format: cell-based; conditions: 72 hours at 37° C.
Procedure: as §1, §2

[5] = tested on: multidrug resistant M109R lung carcinoma cells; assay: as above; format: cell-based; conditions: 72 hours at 37° C.
Procedure: as §1, §2

[6] = as doxorubicin concentration, read-out: IC50 of doxorubicin
[7] = as mitomycin C concentration, read-out: IC50 of Mitomycin C

SMILES	IC50 [1, 6]	IC50 [2, 6]	IC50 ([3]; as doxorubicin concentration, read-out: C50 of doxorubicin)	Doxorubicin Concentration [4]	time after treatment at which tumor approached 5.5 mm (4T1 breast tumor)	tumor growth (FIG. 15), in words (4T1 breast tumor; doses in Example 7)	IC50 (NCI/ADR cells; [6])	IC50 [5, 6]	IC50 [1, 7]	IC50 [2, 7]	IC50 [3, 7]	IC50 (NCI/ADR cells; [7])	IC50 [5, 7]
COc1cccc2c1C(=O)c1c(O)c3c(c(O)c1C2=O)C[C@@](O)(C(=O)CO)C[C@@H]3O[C@H]1C[C@H](N)[C@H](O)[C@H](C)O1 [free doxorubicin, doxorubicin]	190 nM	1100 nM	100 nM	739 ng/10^6 cells	10 days	continued and rapid tumor growth	2500 nM	8.7 µM	–	–	–	–	–
CO[C@@]12[C@H](COC(N)=O)C3=C(C(=O)C(C)=C(N)C3=O)N1C[C@@H]1N[C@@H]12 [free mitomycin C, mitomycin C]	–	–	–	–	–	–	–	–	180 nM	700 nM	50 nM	400 nM	0.3 µM
